Patent US20150250902A1, “pH-RESPONSIVE GADOLINIUM NANOPARTICLE CONJUGATES AND USES THEREOF” (Colorado School of Mines, priority 2014, published 2015)

Test: In vitro MRI relaxivity of gold/Gd nanoparticles and clinical contrast agents
Source text: In vitro MRI of Gadolinium Nanoparticles and Polymer Modified Gadolinium Nanoparticles. In order to provide information about the clinical imaging viability of the polymer modified gold/Gd nanoparticles as a positive contrast agent, in vitro MRI was employed to determine relaxation properties of the unmodified and polymer modified gold/Gd nanoparticles. Table 1 compares the MRI longitudinal and transverse relaxivities, r1 and r2, respectively, of PNIPAM-modified gold/Gd nanoparticles and gold/Gd unmodified nanoparticles to the clinically employed contrasts agents, gadopentetate dimeglumine (Magnevist®) and gadobenate dimeglumine (Multihance®). […] By taking advantage of these properties, novel theragnostic polymer-modified gold/Gd nanoparticles could be produced and exploited as contrast agents for conventional T1 MR imaging.

| SMILES | r1 (MRI longitudinal relaxivity) |
| --- | --- |
| CNC[C@H](O)[C@@H](O)[C@H](O)[C@H](O)CO.CNC[C@H](O)[C@@H](O)[C@H](O)[C@H](O)CO.O=C([O-])CN(CCN(CC(=O)[O-])CC(=O)O)CCN(CC(=O)[O-])CC(=O)O.[Gd+3] [Magnevist ®, gadopentetate dimeglumine] | 6.95 mM⁻¹ s⁻¹ |
| CNC[C@H](O)[C@@H](O)[C@H](O)[C@H](O)CO.CNC[C@H](O)[C@@H](O)[C@H](O)[C@H](O)CO.O=C([O-])CN(CCN(CC(=O)[O-])CC(=O)O)CCN(CC(=O)O)C(COCc1ccccc1)C(=O)[O-].[Gd+3] (centres unmarked) [Multihance ®, gadobenate dimeglumine] | 17.7 mM⁻¹ s⁻¹ |
